Assay results published in patent US10611750B2, “Tetrahydroquinoline compositions as bet bromodomain inhibitors” (FORMA Therapeutics, Inc., priority 2013, dated 2020).
Read-outs that look alike come from different tables or passages of the source.

Tests used:
[1] = test system: acute myelocytic leukemia (AML) cell line MV4-11; test: Oncology cell growth assay (3-day proliferation, CellTiter-Glo); format: cell-based; conditions: Homo sapiens, MV4-11 cells, 3000 cells/well, compounds listed under IC50 range headings, read-out: MV411 IC50 (gIC50, inhibition of proliferation)
Method in brief: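 Compounds were serially diluted 3-fold in DMSO, giving final well concentrations from 10 down to 0.0045 μM. MV4-11 cells were then seeded at 3000 cells/well in RPMI 1640 with 10% FBS and incubated 72 hours. CellTiter-Glo signal was measured and gIC50 obtained by four-parameter logistic regression.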

[2] = target: T1, BRD4 Bromodomain 2 (BRD4 BD2) (Homo sapiens, UniProt O60885); test: AlphaScreen binding assay, BRD4 BD2; conditions: His-tagged BRD4 BD2 100 nM, biotinylated H4 (1-21) K5/8/12/16 tetra-acetylated peptide 100 nM, compounds listed under IC50 range headings
T1 construct: 333-460 were cloned, expressed, and purified to homogeneity
Method: The binding of Example compounds to BRD4 Bromodomain 1 and BRD4 Bromodomain 2 was assessed using 384-well AlphaScreen assay technology. His-epitope tagged BRD4 BD144-168 and BRD4 BD2333-460 were cloned, expressed, and purified to homogeneity. BRD4 BD1 and BRD4 BD2 binding and inhibition was assessed by monitoring the engagement of biotinylated Histone H4 (1-21) K5/8/12/16 tetra-acetylated peptide with the targets using the AlphaScreen technology (PerkinElmer). Specifically, in a 384-well black or white flat bottom plate, BRD4 BD1 (50 nM final) or BRD4 BD2 (100 nM final) was combined with peptide (50 nM final for BD1 or 100 nM final for BD2) in 50 mM HEPES (pH 7.3), 100 mM NaCl, 0.1% (w/v) BSA, and 0.01% (w/v) Triton X-100 either in the presence of DMSO (final 1.25% DMSO) or compound dilution series in DMSO. Alpha streptavidin donor beads and Nickel-chelate acceptor beads were added to a final concentration of 10 μg/ml each. After a minimum of 1 hour equilibration, plates were read on a BMG PHERAstar FS multi-label reader (BMG LabTech). The half maximal inhibitory concentration (IC50) values were calculated using IDBS Activity Base software with a four parameter logistic curve fit by the equation y=A+((B−A)/(1+((C/x)^D))), wherein A denotes the bottom plateau of the curve, B denotes the top plateau of the curve, C denotes the x value at the middle of the curve, D denotes the slope factor, x denotes the original known x values, and y denotes the original known y values. Data was fitted using the Levenburg Marquardt algorithm.

[3] = target: T2, BRD4 Bromodomain 1 (BRD4 BD1) (Homo sapiens, UniProt O60885); test: AlphaScreen binding assay, BRD4 BD1; conditions: His-tagged BRD4 BD1 50 nM, biotinylated H4 (1-21) K5/8/12/16 tetra-acetylated peptide 50 nM, compounds listed under IC50 range headings
T2 construct: 44-168 and BRD4 BD2
Method in brief: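 Compound dilution series were mixed with His-tagged BRD4 bromodomain and biotinylated tetra-acetylated H4 (1-21) peptide at pH 7.3 (BD1 and peptide at 50 nM, BD2 and peptide at 100 nM). Donor and acceptor beads were then added, and plates were equilibrated at least 1 h before reading. IC50 values were fitted with a four-parameter logistic model.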

| IC50 [2] [nM] | IC50 [3] [nM] | IC50 ([1]; MV4-11, 72 h) [nM] | Compound | IC50 ([1]; 72 hours) [nM] |
| --- | --- | --- | --- | --- |
| ≥ 500 | 1000 to 10000 |  | CCCOc1c(-c2ccc(S(C)(=O)=O)cc2)ccc2c1CC[C@H](C)N2C(C)=O [I-482] |  |
| ≥ 500 | 1000 to 10000 |  | CC(=O)N1c2ccc(-c3ccc(S(C)(=O)=O)cc3)c(OCC(=O)N(C)C)c2CC[C@@H]1C [I-483] |  |
| 50 to 500 | 1000 to 10000 |  | CCCOc1c(-c2ccc(S(=O)(=O)CC)cc2)ccc2c1CC[C@H](C)N2C(C)=O [I-484] |  |
| ≥ 500 | 1000 to 10000 |  | CCS(=O)(=O)c1ccc(-c2ccc3c(c2OCC(=O)N(C)C)CC[C@H](C)N3C(C)=O)cc1 [I-485] |  |
| 50 to 500 | 1000 to 10000 |  | CCCOc1c(-c2cccc(C(=O)N3CCOCC3)c2)ccc2c1CC[C@H](C)N2C(C)=O [I-488] |  |
| ≥ 500 | ≥ 10000 |  | CC(=O)N1c2ccc(-c3cccc(C(=O)N4CCOCC4)c3)c(OCC(=O)N(C)C)c2CC[C@@H]1C [I-489] |  |
| 50 to 500 | 1000 to 10000 |  | CCCOc1c(-c2cccc(NS(C)(=O)=O)c2)ccc2c1CC[C@H](C)N2C(C)=O [I-490] |  |
| 50 to 500 | 1000 to 10000 |  | CCCOc1c(-c2cccc(S(C)(=O)=O)c2)ccc2c1CC[C@H](C)N2C(C)=O [I-492] |  |
| ≥ 500 | 1000 to 10000 |  | CC(=O)N1c2ccc(-c3cccc(S(C)(=O)=O)c3)c(OCC(=O)N(C)C)c2CC[C@@H]1C [I-493] |  |
| 50 to 500 | 1000 to 10000 |  | CCCOc1c(-c2ccc(NS(C)(=O)=O)cc2)ccc2c1CC[C@H](C)N2C(C)=O [I-494] |  |
| ≥ 500 | 1000 to 10000 |  | CC(=O)N1c2ccc(-c3ccc(NS(C)(=O)=O)cc3)c(OCC(=O)N(C)C)c2CC[C@@H]1C [I-495] |  |
| 50 to 500 | 1000 to 10000 |  | CCCOc1c(-c2ccc(C(=O)N3CCOCC3)cc2)ccc2c1CC[C@H](C)N2C(C)=O [I-496] |  |
| 50 to 500 | 1000 to 10000 |  | CC(=O)N1c2ccc(-c3ccc(C(=O)N4CCOCC4)cc3)c(OCC(=O)N(C)C)c2CC[C@@H]1C [I-497] |  |
| 50 to 500 | 1000 to 10000 |  | CCCOc1c(-c2ccc(N3CCCS3(=O)=O)cc2)ccc2c1CC[C@H](C)N2C(C)=O [I-498] |  |
| 50 to 500 | 1000 to 10000 |  | CC(=O)N1c2ccc(-c3ccc(N4CCCS4(=O)=O)cc3)c(OCC(=O)N(C)C)c2CC[C@@H]1C [I-499] |  |
| 50 to 500 | 1000 to 10000 |  | CCCOc1c(-c2ccc3c(c2)CCN3S(C)(=O)=O)ccc2c1CC[C@H](C)N2C(C)=O [I-500] |  |
| 50 to 500 | 1000 to 10000 |  | CCCOc1c(-c2ccc(N(C)S(C)(=O)=O)cc2)ccc2c1CC[C@H](C)N2C(C)=O [I-502] |  |
| 50 to 500 | 1000 to 10000 |  | CC(=O)N1c2ccc(-c3ccc(N(C)S(C)(=O)=O)cc3)c(OCC(=O)N(C)C)c2CC[C@@H]1C [I-503] |  |
| 50 to 500 | 1000 to 10000 |  | CC(=O)N1c2ccc(-c3cnn(CCO)c3)c(Oc3nc(C)cc(C)n3)c2CC[C@@H]1C [I-544] |  |
| 50 to 500 | 1000 to 10000 |  | CC(=O)N1c2ccc(-c3cnn(C4COC4)c3)c(OC[C@H]3CCNC3)c2CC[C@@H]1C [I-601] |  |
| ≥ 500 | 1000 to 10000 |  | CC(=O)N1c2ccc(-c3cnn(CC(C)(C)O)c3)c(OC[C@H]3CCNC3)c2CC[C@@H]1C [I-604] |  |
| ≥ 500 | ≥ 10000 |  | CCCOc1cccc2c1CC[C@H](C)N2C(C)=O [I-605] |  |
| ≥ 500 | ≥ 10000 |  | CC(=O)N1c2cccc(OCC(=O)N(C)C)c2CC[C@@H]1C [I-606] |  |
| ≥ 500 | ≥ 10000 |  | CC(=O)N1c2cccc(OCC3CCCC3)c2CC[C@@H]1C [I-607] |  |

More lines, now with the values behind:

| Compound | IC50 [2] [nM] | IC50 [3] [nM] | IC50 ([1]; MV4-11, 72 h) [nM] | IC50 ([1]; 72 hours) [nM] |
| --- | --- | --- | --- | --- |
| CC(=O)N1c2ccc(-c3cnn(C4CC4)c3)c(O[C@H](F)C(N)=O)c2CC[C@@H]1C (single isomer, unassigned) [I-63] | 50 to 500 | 1000 to 10000 |  | > 1000 |
| CC(=O)N1c2ccc(-c3cnn(C4CC4)c3)c(OC(F)C(N)=O)c2CC[C@@H]1C (single isomer, unassigned) [I-64] | ≥ 500 | ≥ 10000 |  | > 1000 |
| CC=Cn1c(Oc2c(-c3cnn(C4CC4)c3)ccc3c2CC[C@H](C)N3C(C)=O)nc2ccccc21 (single isomer, unassigned) [I-352] | 50 to 500 | 1000 to 10000 | 500 to 1000 |  |
| CCCOc1c(-c2cnn(CCO)c2)ccc2c1CC[C@H](C)N2C(C)=O [I-1, (S)-1-(6-(1-(2-hydroxyethyl)-1H-pyrazol-4-yl)-2-methyl-5-propoxy-3,4-dihydroquinolin-1 (2H)-yl)ethanone] | 50 to 500 | 100 to 1000 |  | < 500 |
| COC(=O)N1c2ccc(-c3cnn(CC(C)(C)O)c3)c(OCC(=O)N(C)C)c2CC[C@@H]1C [I-453] | 50 to 500 | 1000 to 10000 |  |  |
| COC(=O)N1c2ccc(-c3cnn(C4CCNCC4)c3)c(OCC(=O)N(C)C)c2CC[C@@H]1C [I-454] | 50 to 500 | 1000 to 10000 |  |  |
| COC(=O)N1c2ccc(-c3cnn(CCS(C)(=O)=O)c3)c(OCC(C)C)c2CC[C@@H]1C [I-455] | 50 to 500 | 1000 to 10000 |  |  |
| COC(=O)N1c2ccc(-c3cnn(CC(C)(C)O)c3)c(OCC(C)C)c2CC[C@@H]1C [I-456] | 50 to 500 | 1000 to 10000 |  |  |
| COC(=O)N1c2ccc(-c3cnn(CCO)c3)c(OCC(C)C)c2CC[C@@H]1C [I-457] | 50 to 500 | 1000 to 10000 |  |  |
| COC(=O)N1c2ccc(-c3cnn(CC(C)(C)O)c3)c(OCC3CCCC3)c2CC[C@@H]1C [I-460] | 50 to 500 | 1000 to 10000 |  |  |
| COC(=O)N1c2ccc(-c3cnn(CCS(C)(=O)=O)c3)c(OCC(=O)N3CCCC3)c2CC[C@@H]1C [I-463] | 50 to 500 | 1000 to 10000 |  |  |
| COC(=O)N1c2ccc(-c3cnn(CC(C)(C)O)c3)c(OCC(=O)N3CCCC3)c2CC[C@@H]1C [I-464] | 50 to 500 | 1000 to 10000 |  |  |
| COC(=O)N1c2ccc(-c3cnn(CCO)c3)c(OCC(=O)N3CCCC3)c2CC[C@@H]1C [I-465] | 50 to 500 | 1000 to 10000 |  |  |
| COC(=O)N1c2ccc(-c3cnn(CCS(C)(=O)=O)c3)c(OC[C@H]3CCC(=O)N3)c2CC[C@@H]1C [I-467] | 50 to 500 | 1000 to 10000 |  |  |
| COC(=O)N1c2ccc(-c3cnn(CC(C)(C)O)c3)c(OC[C@H]3CCC(=O)N3)c2CC[C@@H]1C [I-468] | 50 to 500 | 1000 to 10000 |  |  |
| COC(=O)N1c2ccc(-c3cnn(CCO)c3)c(OC[C@H]3CCC(=O)N3)c2CC[C@@H]1C [I-469] | 50 to 500 | 1000 to 10000 |  |  |
| COC(=O)N1c2ccc(-c3cnn(C4CCNCC4)c3)c(OC[C@H]3CCC(=O)N3)c2CC[C@@H]1C [I-470] | 50 to 500 | 1000 to 10000 |  |  |
| COC(=O)N1c2ccc(-c3cnn(CCS(C)(=O)=O)c3)c(OCCN(C)S(C)(=O)=O)c2CC[C@@H]1C [I-471] | 50 to 500 | 1000 to 10000 |  |  |
| COC(=O)N1c2ccc(-c3cnn(CC(C)(C)O)c3)c(OCCN(C)S(C)(=O)=O)c2CC[C@@H]1C [I-472] | 50 to 500 | 1000 to 10000 |  |  |
| COC(=O)N1c2ccc(-c3cnn(CCO)c3)c(OCCN(C)S(C)(=O)=O)c2CC[C@@H]1C [I-473] | 50 to 500 | 1000 to 10000 |  |  |
| COC(=O)N1c2ccc(-c3cnn(C4CCNCC4)c3)c(OCCN(C)S(C)(=O)=O)c2CC[C@@H]1C [I-474] | 50 to 500 | 1000 to 10000 |  |  |
| COC(=O)N1c2ccc(-c3cnn(CCS(C)(=O)=O)c3)c(OC[C@H]3CCNC3)c2CC[C@@H]1C [I-475] | 50 to 500 | 1000 to 10000 |  |  |
| COC(=O)N1c2ccc(-c3cnn(C4CCNCC4)c3)c(OC[C@H]3CCNC3)c2CC[C@@H]1C [I-477] | 50 to 500 | 1000 to 10000 |  |  |
| CC(=O)N1c2ccc(-c3cnn(C4CC4)c3)c(OCc3ncc(C)o3)c2CC[C@@H]1C [I-478] | 50 to 500 | 1000 to 10000 |  |  |
| CC(=O)N1c2ccc(-c3cnn(C4CC4)c3)c(OCc3nc4ccccc4o3)c2CC[C@@H]1C [I-481] | ≥ 500 | ≥ 10000 |  |  |
